Activity calls are given as the source filed them. No cut-off for these calls is given here.
Assays:
Assay type in all cases: functional
Mus musculus [1] = test: Anti-inflammatory activity in TPA-induced Balb/c mouse ear edema model assessed as reduction in TPA-induced ear edema at 0.75 uM administered topically 6 mins prior to TPA administration measured after 6 hrs relative to control; set-up: scale not given: the % may be the effect or the level left
Mus musculus [2] = test: In vivo inhibition of IKK-mediated NF-kB activation in Balb/c mouse assessed as decrease in TPA-induced TNFalpha expression at 0.75 uM administered topically 6 mins prior to TPA administration measured after 6 hrs by immunohistochemical analysis
Mus musculus [3] = test: In vivo inhibition of IKK-mediated NF-kB activation in Balb/c mouse assessed as decrease in TPA-induced phosphorylation of IKBalpha at Ser-32 residue at 0.75 uM administered topically 6 mins prior to TPA administration measured after 6 hrs by immunohistochemical analysis
Mus musculus [4] = test: In vivo inhibition of IKK-mediated NF-kB activation in Balb/c mouse assessed as decrease in TPA-induced IL-1beta expression at 0.75 uM administered topically 6 mins prior to TPA administration measured after 6 hrs by immunohistochemical analysis
Mus musculus [5] = test: In vivo inhibition of IKK-mediated NF-kB activation in Balb/c mouse assessed as decrease in TPA-induced COX2 expression at 0.75 uM administered topically 6 mins prior to TPA administration measured after 6 hrs by immunohistochemical analysis
Mus musculus [6] = test: Potency index, ratio of compound to celecoxib potency for reduction in TPA-induced ear edema in Balb/c mouse
Mus musculus [7] = test: In vivo inhibition of IKK-mediated NF-kB activation in Balb/c mouse assessed as decrease in TPA-induced p65 expression at 0.75 uM administered topically 6 mins prior to TPA administration measured after 6 hrs by immunohistochemical analysis
Mus musculus [8] = test: Anti-inflammatory activity in Balb/c mouse assessed as reduction in TPA-induced epidermal hyperplasia at 0.75 uM administered topically 6 mins prior to TPA administration measured after 6 hrs by hematoxylin and eosin staining based microscopic analysis
Mus musculus [9] = test: In vivo inhibition of IKK-mediated NF-kB activation in Balb/c mouse assessed as decrease in TPA-induced phospho-Ser536 p65 expression at 0.75 uM administered topically 6 mins prior to TPA administration measured after 6 hrs by immunohistochemical analysis
Mus musculus [10] = test: In vivo inhibition of IKK-mediated NF-kB activation in Balb/c mouse assessed as decrease in TPA-induced IL-6 expression at 0.75 uM administered topically 6 mins prior to TPA administration measured after 6 hrs by immunohistochemical analysis
Mus musculus [11] = test: In vivo inhibition of IKK activation in Balb/c mouse at 0.75 uM administered topically 6 mins prior to TPA administration measured after 6 hrs by immunohistochemical analysis
Mus musculus [12] = test: Anti-inflammatory activity in Balb/c mouse assessed as reduction in TPA-induced hyperkeratosis at 0.75 uM administered topically 6 mins prior to TPA administration measured after 6 hrs by hematoxylin and eosin staining based microscopic analysis
Mus musculus [13] = test: Anti-inflammatory activity in Balb/c mouse assessed as reduction in TPA-induced dense dermal leukocyte infiltration at 0.75 uM administered topically 6 mins prior to TPA administration measured after 6 hrs by hematoxylin and eosin staining based microscopic analysis

SMILES | Activity (Mus musculus [1]) [%] | further results
CCn1c(-c2ccccc2)cc2c1CCC2 | 13.56 | 
COc1ccc(Cn2c(-c3ccc(C)cc3)cc3c2CCC3)cc1 | 7.71 | 
c1ccc(-c2cc3c(n2-c2ccccc2)CC(c2ccccc2)C3)cc1 (configuration not stated) | 16.09 | 
C#CCn1c(-c2ccccc2)cc2c1CCC2 | 8.77 | 
CCCCn1c(-c2ccccc2)cc2c1CCC2 | -9.17 | 
CC(C)(C)c1cc2c(n1-c1ccccc1)CCC2 | -0.53 | 
CCCn1c(-c2ccccc2)cc2c1CCC2 | 57.31 | inhibition (Mus musculus [2]): Active; inhibition (Mus musculus [3]): Active; inhibition (Mus musculus [4]): Active; inhibition (Mus musculus [5]): Active; Ratio (Mus musculus [6]): 3.2; inhibition (Mus musculus [7]): Active; Activity (Mus musculus [8]): Active; inhibition (Mus musculus [9]): Active; inhibition (Mus musculus [10]): Active; inhibition (Mus musculus [11]): Active; Activity (Mus musculus [12]): Active; Activity (Mus musculus [13]): Active
Clc1ccccc1-n1c(-c2ccccc2)cc2c1CCC2 | -6.78 | 
Brc1ccc(-n2c(-c3ccccc3)cc3c2CCC3)cc1 | 15.96 | 
COc1ccc(Cn2c(-c3ccccc3)cc3c2CCC3)cc1 | 2.93 | 
c1ccc(CCCn2c(-c3ccccc3)cc3c2CCC3)cc1 | -13.56 | 
Cc1ccc(-c2cc3c(n2-c2ccccc2)CCC3)cc1 | 0.53 | 
c1ccc(CCn2c(-c3ccccc3)cc3c2CCC3)cc1 | -1.86 | 
c1ccc(-c2cc3c(n2C2CC2)CCC3)cc1 | 20.88 | 
COCCCn1c(-c2ccccc2)cc2c1CCC2 | 1.46 | 
c1ccc(-c2cc3c([nH]2)CCC3)cc1 | 10.23 | 
O=[N+]([O-])c1ccc(-n2c(-c3ccccc3)cc3c2CCC3)cc1 | -12.9 | 
c1ccc(Cn2c(-c3ccccc3)cc3c2CCC3)cc1 | 25.66 | 
CC(C)Cn1c(-c2ccccc2)cc2c1CCC2 | 6.91 | 
c1ccc(-c2cc3c(n2-c2ccccc2)CCC3)cc1 | -0.93 | 
Cc1ccc(-c2cc(C(F)(F)F)nn2-c2ccc(S(N)(=O)=O)cc2)cc1 [CELECOXIB] | 17.95 | inhibition (Mus musculus [2]): Active; inhibition (Mus musculus [4]): Active; inhibition (Mus musculus [5]): Active; inhibition (Mus musculus [7]): Active; Activity (Mus musculus [8]): Active; inhibition (Mus musculus [9]): Active; inhibition (Mus musculus [10]): Active; Activity (Mus musculus [12]): Active; Activity (Mus musculus [13]): Active
c1ccc(-c2cc3c(n2C2CCCCC2)CCC3)cc1 | 19.02 | 
CC(C)(C)c1cc2c([nH]1)CCC2 | 9.71 | 
Clc1ccc(-n2c(-c3ccccc3)cc3c2CCC3)cc1 | 19.41 | 
C#CCn1c(-c2ccc(C)cc2)cc2c1CCC2 | 4.92 | 
COc1ccc(-c2cc3c([nH]2)CCC3)cc1 | 17.55 | 
